The term IC50 denotes the midpoint of a concentration-inhibition curve. A high value points to weaker potency.

Assay [1] has as its system ANP-treated SHR. Put plainly: Diuretic effect on ANP-treated SHR, i.v. (Experiment C-4). The format is in vivo, Spontaneously hypertensive male rats. As to the method:
50 ng/kg/min of rat Atrial natriuretic peptide (r-ANP) was intravenously injected into Spontaneously hypertensive male rats (aged 14 to 16 weeks). When the hematogenic dynamics and the blood r-ANP level became stable 1 hour after the injection, the diuretic effect of each test compound was examined. The diuretic effect was determined by intravenously injecting the test compound and measuring an increase (% rate of change) in urinary accumulation within 20 minutes. As a comparative compound, [4S-[4α,7α(R*),12bβ]]-7-[(1-oxo-2(S)-thio-3-phenylpropyl)amino[-1,2,3,4,6,7,8,12b-octahydro-6-oxopyrido[2,1-a][2]benzazepine-4-carboxylic acid was used.

In assay [2] the target is T1, ACE (Rattus norvegicus, UniProt P47820).
T1 construct: membrane fraction prepared from rat lung; from tissue; host or cells: rat lung, membrane fraction (method of Wu-Wong et al.)
T1 sequence (P47820 36-1313): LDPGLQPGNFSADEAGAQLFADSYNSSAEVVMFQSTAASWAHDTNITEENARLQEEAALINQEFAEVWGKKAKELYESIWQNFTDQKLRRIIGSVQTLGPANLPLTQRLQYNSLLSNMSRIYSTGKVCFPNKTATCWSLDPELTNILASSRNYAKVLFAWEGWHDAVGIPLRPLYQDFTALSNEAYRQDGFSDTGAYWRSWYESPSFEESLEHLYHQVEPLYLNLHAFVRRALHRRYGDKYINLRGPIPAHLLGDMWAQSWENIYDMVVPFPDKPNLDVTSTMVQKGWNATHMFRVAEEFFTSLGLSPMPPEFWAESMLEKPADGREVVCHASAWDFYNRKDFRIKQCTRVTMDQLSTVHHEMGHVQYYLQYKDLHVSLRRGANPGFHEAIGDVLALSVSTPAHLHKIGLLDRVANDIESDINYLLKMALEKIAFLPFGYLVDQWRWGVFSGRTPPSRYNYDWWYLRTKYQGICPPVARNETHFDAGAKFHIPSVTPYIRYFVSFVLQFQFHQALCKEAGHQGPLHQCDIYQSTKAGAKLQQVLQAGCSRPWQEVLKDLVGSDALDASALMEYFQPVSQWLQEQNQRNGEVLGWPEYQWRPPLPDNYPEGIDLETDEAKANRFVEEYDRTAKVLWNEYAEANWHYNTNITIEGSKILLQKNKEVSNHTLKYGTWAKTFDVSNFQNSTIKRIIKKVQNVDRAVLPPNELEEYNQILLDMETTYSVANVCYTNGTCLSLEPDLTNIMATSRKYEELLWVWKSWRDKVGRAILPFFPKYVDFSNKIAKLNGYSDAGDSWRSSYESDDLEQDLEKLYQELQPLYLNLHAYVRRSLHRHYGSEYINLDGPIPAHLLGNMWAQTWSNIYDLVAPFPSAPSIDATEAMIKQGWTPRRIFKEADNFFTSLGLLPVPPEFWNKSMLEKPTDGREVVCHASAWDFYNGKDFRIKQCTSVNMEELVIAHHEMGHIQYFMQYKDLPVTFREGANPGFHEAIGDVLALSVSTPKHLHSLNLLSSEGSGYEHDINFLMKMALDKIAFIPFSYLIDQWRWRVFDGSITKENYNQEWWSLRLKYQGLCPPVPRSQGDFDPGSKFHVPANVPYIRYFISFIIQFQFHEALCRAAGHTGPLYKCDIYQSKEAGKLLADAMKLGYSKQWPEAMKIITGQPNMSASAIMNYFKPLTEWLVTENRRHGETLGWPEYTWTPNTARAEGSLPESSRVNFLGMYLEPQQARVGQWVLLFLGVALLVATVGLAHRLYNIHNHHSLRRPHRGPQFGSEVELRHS
Put plainly: ACE inhibition activity (Experiment F-1). The format is biochemical. Conditions: rat lung membrane fraction, pH 8.3. As to the method: As a source of the enzyme ACE, a membrane fraction prepared from rat lung in accordance with the method of Wu-Wong et al. (Characterization of Endthelin Converting Enzyme in Rat Lung., Jinshyum R. Wu-Wong, Gerald P. Budzik, Edward M, Devine and Terry J. Opgenorth, Biochem. Biophys. Res. Commun., 1990, 171, 1291-1296.) was used. The ACE activity was determined with the use of a modification (modified to a borate buffer pH 8.3) of the method of Cushman and Cheung (Spectrophotometric Assay and Properties of the Angiotensin-Converting Enzyme of Rabbit Lung., Cushman D. W. and Cheung H. S., 1971, 20, 1637-1648.). Now the procedure will be briefly described.
In the presence of ACE, the hippurate liberated from hippuryl-histidyl-leucine (Hippuryl-His-Leu (Peptide Institute Inc., Japan)) was extracted with ethyl acetate and then the absorbance was measured at a wavelength of 228 nm.
With respect to the NEP inhibition activity and the ACE inhibition activity, the inhibitor was added to the assay systems of both enzyme activities as described above in such a manner as to give the final concentrations of 1, 3, 10, 30, 100, 300 and 1000 inhibition curves were prepared, and then the concentration at which 50% inhibition was achieved was taken as IC50.

In the case of `CC[C@H](C)[C@H](S)C(=O)N[C@H]1CCC[C@H]2SC[C@@H](C(=O)O)N2C1=O` [Example C-8, [3R-[3α,6α,(S*),9aβ]]-6-[[(2S,3S)-3-methyl-1-oxo-2-thiopentyl]amino]-octahydro-5-oxothiazol[3,2-a]-azepine-3-carboxylic acid], the results for the “increase (% rate of change) in urinary accumulation within 20 minutes” value (“increase (% rate of change)” for short) in assay [1] (0.01 mg/kg i.v.), in assay [1] (0.03 mg/kg i.v.) and in assay [1] (0.1 mg/kg i.v.) were 200%, 280% and 340%, respectively. Moreover, in assay [2], the IC50 came out at 5.2 nM.
As for `CC[C@H](C)[C@H](S)C(=O)N[C@H]1Cc2ccc(-c3ccccc3)cc2[C@H]2CCC[C@@H](C(=O)O)N2C1=O` [Example C-14, [4S-[4α,7α(R*),12bβ]]-7-[[(2S,3S)-3-Methyl-1-oxo-2-thiopentyl]amino]-6-oxo-11-phenyl-1,2,3,4,6,7,8,12b-octahydropyrido[2,1-a][2]benzazepine-4-carboxylic acid], the “increase (% rate of change)” value is given as 240% in assay [1] (0.03 mg/kg i.v.), 420% in assay [1] (0.1 mg/kg i.v.) and 470% in assay [1] (0.3 mg/kg i.v.).
With `CC[C@H](C)[C@H](S)C(=O)N[C@H]1CCc2ccccc2N(CC(=O)O)C1=O` [Example A-11, (S)-3-[(2S,3S)-2-Mercapto-3-methylvarelylamino]-1-carboxymethyl-2,3,4,5-tetrahydro-1H-[1]benzazepin-2-one], the “increase (% rate of change)” value stood at 220% in assay [1] (0.01 mg/kg i.v.), 390% in assay [1] (0.03 mg/kg i.v.) and 460% in assay [1] (0.1 mg/kg i.v.).
In the case of `O=C(N[C@H]1CCC[C@H]2SC[C@@H](C(=O)O)N2C1=O)[C@@H](S)Cc1ccccc1` [Example F-17, [3R-[3α,6α(S*),9aβ]]-6-[[(S)-1-Oxo-2-thio-3-phenylpropyl]amino]-octahydro-5-oxothiazol[3,2-a]-azepine-3-carboxylic acid], half-maximal inhibition in assay [2] (IC50) was put at 13.4 nM.
For the molecule `O=C(N[C@H]1Cc2ccccc2[C@H]2CCC[C@@H](C(=O)O)N2C1=O)[C@@H](S)Cc1ccccc1` [Comp. cpd. E-1, [4S-[4α,7α(R*),12bβ]]-7-[(1-oxo-2-(S)-thio-3-phenyl-propyl)amino]-1,2,3,4,6,7,8,12b-octahydro-6-oxopyrido-[2,1-a][2]benzazepine-4-carboxylic acid, reference compound], the “increase (% rate of change)” value in assay [1] (0.03 mg/kg i.v.) was 220%; in assay [1] (0.1 mg/kg i.v.), 370%; in assay [1] (0.3 mg/kg i.v.) it was 360%. In addition, the IC50 in assay [2] was found to be 10.6 nM.

Values taken from patent publication US5679671A, “Amino acid derivative” (Eisai Co., Ltd., priority 1993, dated 1997).
